Measured values: PubChem BioAssay (NCI)
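Method: 48-hour compound exposure of cells in 96-well plates, five concentrations, linear interpolation of endpoints. TGI: total growth inhibition.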

Legend:
Test in all cases: growth of human tumour cells (NCI), 48 h
KM12 colon = system: KM12 colon
M14 melanoma = system: M14 melanoma
OVCAR-5 ovarian = system: OVCAR-5 ovarian
SK-OV-3 ovarian = system: SK-OV-3 ovarian
SF-268 CNS = system: SF-268 CNS
DU-145 prostate = system: DU-145 prostate
HOP-92 NSCLC = system: HOP-92 NSCLC
SR leukemia = system: SR leukemia
HL-60(TB) leukemia = system: HL-60(TB) leukemia
MDA-MB-435 = system: MDA-MB-435
NCI-H23 lung = system: NCI-H23 lung
UACC-257 melanoma = system: UACC-257 melanoma
786-0 renal = system: 786-0 renal
HCT-116 colon = system: HCT-116 colon
LOX IMVI melanoma = system: LOX IMVI melanoma
A498 renal = system: A498 renal
SNB-19 CNS = system: SNB-19 CNS
SF-539 CNS = system: SF-539 CNS
SK-MEL-5 melanoma = system: SK-MEL-5 melanoma
MOLT-4 leukemia = system: MOLT-4 leukemia
EKVX NSCLC = system: EKVX NSCLC
SW-620 colon = system: SW-620 colon
NCI-H460 lung = system: NCI-H460 lung
HT29 colon = system: HT29 colon
ACHN renal = system: ACHN renal
SNB-75 CNS = system: SNB-75 CNS
MDA-MB-231 breast = system: MDA-MB-231 breast
RXF 393 renal = system: RXF 393 renal
MALME-3M melanoma = system: MALME-3M melanoma
MDA-N = system: MDA-N
CAKI-1 renal = system: CAKI-1 renal
MCF7 breast = system: MCF7 breast
U251 CNS = system: U251 CNS
NCI-H522 lung = system: NCI-H522 lung
SK-MEL-2 melanoma = system: SK-MEL-2 melanoma
OVCAR-8 ovarian = system: OVCAR-8 ovarian
HCT-15 colon = system: HCT-15 colon
BT-549 breast = system: BT-549 breast
NCI-H226 lung = system: NCI-H226 lung
RPMI-8226 leukemia = system: RPMI-8226 leukemia
A549 NSCLC = system: A549 NSCLC
OVCAR-4 ovarian = system: OVCAR-4 ovarian
HOP-62 NSCLC = system: HOP-62 NSCLC
T-47D breast = system: T-47D breast
HS 578T breast = system: HS 578T breast
IGROV1 ovarian = system: IGROV1 ovarian
SN12C renal = system: SN12C renal
SK-MEL-28 melanoma = system: SK-MEL-28 melanoma
UO-31 renal = system: UO-31 renal
SF-295 CNS = system: SF-295 CNS
PC-3 prostate = system: PC-3 prostate
NCI/ADR-RES ovarian = system: NCI/ADR-RES ovarian
OVCAR-3 ovarian = system: OVCAR-3 ovarian
K-562 leukemia = system: K-562 leukemia
COLO 205 colon = system: COLO 205 colon
UACC-62 melanoma = system: UACC-62 melanoma
TK-10 renal = system: TK-10 renal
CCRF-CEM leukemia = system: CCRF-CEM leukemia

With `NS(=O)(=O)c1ccc(N=Nc2ncccc2O)cc1` the TGI (KM12 colon) was over 100 µM, the TGI (M14 melanoma) was over 100 µM and the TGI (OVCAR-5 ovarian) was over 100 µM. For the same molecule, the TGI (SK-OV-3 ovarian) was over 100 µM, the TGI (SF-268 CNS) was over 100 µM and the TGI (DU-145 prostate) was over 100 µM. The TGI (HOP-92 NSCLC) was over 100 µM, the TGI (SR leukemia) was 71.9 µM and the TGI (HL-60(TB) leukemia) was over 100 µM. For the same molecule, the TGI (MDA-MB-435) was over 100 µM, the TGI (NCI-H23 lung) was over 100 µM and the TGI (UACC-257 melanoma) was over 100 µM. It also gave a TGI (786-0 renal) of over 100 µM, a TGI (HCT-116 colon) of over 100 µM and a TGI (LOX IMVI melanoma) of over 100 µM. It also gave a TGI (A498 renal) of over 100 µM, a TGI (SNB-19 CNS) of over 100 µM and a TGI (SF-539 CNS) of over 100 µM. It also gave a TGI (SK-MEL-5 melanoma) of over 100 µM, a TGI (MOLT-4 leukemia) of 87.8 µM and a TGI (EKVX NSCLC) of over 100 µM. The TGI (SW-620 colon) was over 100 µM, the TGI (NCI-H460 lung) was over 100 µM and the TGI (HT29 colon) was over 100 µM. For the same molecule, the TGI (ACHN renal) was over 100 µM, the TGI (SNB-75 CNS) was over 100 µM and the TGI (MDA-MB-231 breast) was over 100 µM. The TGI (RXF 393 renal) was over 100 µM, the TGI (MALME-3M melanoma) was over 100 µM and the TGI (MDA-N) was over 100 µM. It also gave a TGI (CAKI-1 renal) of over 100 µM, a TGI (MCF7 breast) of over 100 µM and a TGI (U251 CNS) of over 100 µM. The TGI (NCI-H522 lung) was over 100 µM, the TGI (SK-MEL-2 melanoma) was over 100 µM and the TGI (OVCAR-8 ovarian) was over 100 µM. For the same molecule, the TGI (HCT-15 colon) was over 100 µM, the TGI (BT-549 breast) was over 100 µM and the TGI (NCI-H226 lung) was over 100 µM. For the same molecule, the TGI (RPMI-8226 leukemia) was over 100 µM, the TGI (A549 NSCLC) was over 100 µM and the TGI (OVCAR-4 ovarian) was over 100 µM. It also gave a TGI (HOP-62 NSCLC) of over 100 µM, a TGI (T-47D breast) of over 100 µM and a TGI (HS 578T breast) of over 100 µM. It also gave a TGI (IGROV1 ovarian) of over 100 µM, a TGI (SN12C renal) of over 100 µM and a TGI (SK-MEL-28 melanoma) of over 100 µM. For the same molecule, the TGI (UO-31 renal) was over 100 µM, the TGI (SF-295 CNS) was over 100 µM and the TGI (PC-3 prostate) was over 100 µM. For the same molecule, the TGI (NCI/ADR-RES ovarian) was over 100 µM, the TGI (OVCAR-3 ovarian) was over 100 µM and the TGI (K-562 leukemia) was over 100 µM. It also gave a TGI (COLO 205 colon) of over 100 µM, a TGI (UACC-62 melanoma) of over 100 µM and a TGI (TK-10 renal) of over 100 µM.
`O=C(c1ccccc1)c1ccc2nc(-c3c(Cl)c(Cl)c(Cl)c(Cl)c3C(=O)N/N=C\C=C\c3ccccc3)[nH]c2c1` showed a TGI (KM12 colon) of over 100 µM, a TGI (M14 melanoma) of over 100 µM and a TGI (OVCAR-5 ovarian) of over 100 µM. For the same molecule, the TGI (SK-OV-3 ovarian) was over 100 µM, the TGI (SF-268 CNS) was over 100 µM and the TGI (DU-145 prostate) was over 100 µM. The TGI (HOP-92 NSCLC) was over 100 µM, the TGI (CCRF-CEM leukemia) was 86.8 µM and the TGI (SR leukemia) was 97.4 µM. It also gave a TGI (HL-60(TB) leukemia) of over 100 µM, a TGI (MDA-MB-435) of over 100 µM and a TGI (NCI-H23 lung) of over 100 µM. The TGI (UACC-257 melanoma) was over 100 µM, the TGI (786-0 renal) was over 100 µM and the TGI (HCT-116 colon) was over 100 µM. The TGI (LOX IMVI melanoma) was over 100 µM, the TGI (SNB-19 CNS) was over 100 µM and the TGI (SF-539 CNS) was over 100 µM. The TGI (SK-MEL-5 melanoma) was over 100 µM, the TGI (MOLT-4 leukemia) was over 100 µM and the TGI (EKVX NSCLC) was over 100 µM. The TGI (SW-620 colon) was over 100 µM, the TGI (HT29 colon) was over 100 µM and the TGI (ACHN renal) was over 100 µM. For the same molecule, the TGI (SNB-75 CNS) was over 100 µM, the TGI (MDA-MB-231 breast) was over 100 µM and the TGI (RXF 393 renal) was 95.3 µM. For the same molecule, the TGI (MALME-3M melanoma) was over 100 µM, the TGI (MDA-N) was over 100 µM and the TGI (CAKI-1 renal) was over 100 µM. For the same molecule, the TGI (MCF7 breast) was over 100 µM, the TGI (U251 CNS) was over 100 µM and the TGI (NCI-H522 lung) was over 100 µM. The TGI (SK-MEL-2 melanoma) was over 100 µM, the TGI (OVCAR-8 ovarian) was over 100 µM and the TGI (HCT-15 colon) was over 100 µM. For the same molecule, the TGI (BT-549 breast) was over 100 µM, the TGI (NCI-H226 lung) was over 100 µM and the TGI (RPMI-8226 leukemia) was 64 µM. The TGI (A549 NSCLC) was over 100 µM, the TGI (OVCAR-4 ovarian) was over 100 µM and the TGI (HOP-62 NSCLC) was over 100 µM. For the same molecule, the TGI (T-47D breast) was over 100 µM, the TGI (HS 578T breast) was over 100 µM and the TGI (IGROV1 ovarian) was over 100 µM. The TGI (SN12C renal) was over 100 µM, the TGI (SK-MEL-28 melanoma) was over 100 µM and the TGI (UO-31 renal) was over 100 µM. It also gave a TGI (SF-295 CNS) of over 100 µM, a TGI (PC-3 prostate) of over 100 µM and a TGI (NCI/ADR-RES ovarian) of over 100 µM. It also gave a TGI (OVCAR-3 ovarian) of 84.8 µM, a TGI (K-562 leukemia) of over 100 µM and a TGI (COLO 205 colon) of over 100 µM. It also gave a TGI (TK-10 renal) of over 100 µM.
